Reference: US9695155B2, “Herbicidal substituted pyrimidinyloxy benzene compounds” (E. I. DU PONT DE NEMOURS AND COMPANY, priority 2013, dated 2017)

Key:
[1] = test system: wheat; experiment: Test A postemergence; type: in vivo, Triticum aestivum; settings: 0 to 100 scale where 0 is no effect and 100 is complete control
Outline: (§1)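 Visual injury scored 0–100 (100 = complete control) against untreated controls about 10 days after treatment in a greenhouse. Test chemicals, formulated with surfactant in non-phytotoxic solvent, were sprayed on soil preemergence or on 2-10 cm, one- to two-leaf plants postemergence.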

[2] = test system: giant foxtail; experiment: Test C postemergence; type: in vivo, Setaria faberii
Outline: (§2)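 Whole-plant greenhouse test with surfactant-containing solvent formulation, applied preemergence to sown loam–sand pots or postemergence to 2–18 cm plants. Scored by eye 13 to 15 days on, 0–100 scale.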

[3] = test system: morningglory; experiment: Test C postemergence; type: in vivo, Ipomoea coccinea
Outline: as §2

[4] = test system: large (Lg) crabgrass; experiment: Test A preemergence; type: in vivo, Digitaria sanguinalis
Outline: as §1

[5] = test system: rice; experiment: Test B flooded paddy test; type: in vivo, Oryza sativa; settings: Flood, 250 g ai/ha; 0 to 100 scale where 0 is no effect and 100 is complete control
Outline: (§3)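 Flooded to 3 cm at the 2-leaf stage, pots received compound through the paddy water and were kept at that depth under greenhouse conditions. After 13–15 days, effect was rated by eye relative to controls, 0 = none and 100 = complete control.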

[6] = test system: morningglory; experiment: Test A preemergence; type: in vivo, Ipomoea spp.
Outline: as §1

[7] = test system: wheat, winter; experiment: Test C postemergence; type: in vivo, Triticum aestivum
Outline: as §2

[8] = test system: soybean; experiment: Test C postemergence; type: in vivo, Glycine max
Outline: as §2

[9] = test system: Heteranthera limosa; experiment: Test B flooded paddy test; type: in vivo; settings: Flood, 250 g ai/ha; 0 to 100 scale where 0 is no effect and 100 is complete control
Outline: as §3

[10] = test system: corn; experiment: Test A preemergence; type: in vivo, Zea mays
Outline: as §1

[11] = test system: barnyardgrass; experiment: Test B flooded paddy test; type: in vivo, Echinochloa crus-galli; settings: Flood, 250 g ai/ha; 0 to 100 scale where 0 is no effect and 100 is complete control
Outline: as §3

[12] = test system: barnyardgrass; experiment: Test A postemergence; type: in vivo, Echinochloa crus-galli; settings: 0 to 100 scale where 0 is no effect and 100 is complete control
Outline: as §1

[13] = test system: velvetleaf; experiment: Test A preemergence; type: in vivo, Abutilon theophrasti
Outline: as §1

[14] = test system: ragweed; experiment: Test C postemergence; type: in vivo, Ambrosia elatior
Outline: as §2

[15] = test system: sedge, umbrella; experiment: Test B flooded paddy test; type: in vivo, Cyperus difformis; settings: Flood, 250 g ai/ha; 0 to 100 scale where 0 is no effect and 100 is complete control
Outline: as §3

[16] = test system: corn; experiment: Test C postemergence; type: in vivo, Zea mays
Outline: as §2

[17] = test system: yellow nutsedge; experiment: Test C postemergence; type: in vivo, Cyperus esculentus
Outline: as §2

[18] = 16 g ai/ha, postemergence, 0 is no effect, 100 is complete control
[19] = 31 g ai/ha, postemergence, visual rating, scale 0 to 100 (0 no effect, 100 complete control), 13 to 15 days
[20] = 125 g ai/ha, postemergence, visual rating, scale 0 to 100 (0 no effect, 100 complete control)
[21] = Postemergence, 62 g ai/ha, scale 0 to 100 (0 no effect, 100 complete control)
[22] = 500 g ai/ha, 0 to 100 scale where 0 is no effect and 100 is complete control

Compound: FC(F)(F)c1cnn(-c2c(Br)cccc2Oc2ncc(Cl)cn2)c1 [Compound 191]
- Wheat plant response rating ([1]; 125 g ai/ha): 20
- Plant response rating, Wheat ([1]; 500 g ai/ha): 40
- Plant response rating (0 to 100), Foxtail, Giant [2, 18]: 10
- Foxtail, Giant plant response rating [2, 19]: 10
- Plant response rating, Foxtail, Giant [2, 20]: 15
- Plant response rating, Foxtail, Giant [2, 21]: 10
- Plant response rating (0 to 100), Morningglory [3, 18]: 40
- Morningglory plant response rating [3, 19]: 85
- Plant response rating, Morningglory [3, 20]: 50
- Plant response rating, Morningglory [3, 21]: 85
- Crabgrass, Large plant response rating (0 to 100 scale) ([4]; 125 g ai/ha): 100
- Crabgrass, Large plant response rating [4, 22]: 100
- Plant response rating, Rice [5]: 0
- Morningglory plant response rating (0 to 100 scale) ([6]; 125 g ai/ha): 50
- Morningglory plant response rating [6, 22]: 70
- Plant response rating (0 to 100), Wheat [7, 18]: 0
- Wheat plant response rating [7, 19]: 0
- Plant response rating, Wheat [7, 20]: 0
- Plant response rating, Wheat [7, 21]: 0
- Plant response rating (0 to 100), Soybean [8, 18]: 40
- Soybean plant response rating [8, 19]: 55
- Plant response rating, Soybean [8, 20]: 30
- Plant response rating, Soybean [8, 21]: 60
- Plant response rating, Ducksalad [9]: 95
- Corn plant response rating (0 to 100 scale) ([10]; 125 g ai/ha): 0
- Corn plant response rating [10, 22]: 30
- Plant response rating, Barnyardgrass [11]: 40
- Barnyardgrass plant response rating ([12]; 125 g ai/ha): 50
- Plant response rating, Barnyardgrass ([12]; 500 g ai/ha): 90
- Velvetleaf plant response rating (0 to 100 scale) ([13]; 125 g ai/ha): 80
- Velvetleaf plant response rating [13, 22]: 90
- Plant response rating (0 to 100), Ragweed [14, 18]: 5
- Ragweed plant response rating [14, 19]: 20
- Plant response rating, Ragweed [14, 20]: 35
- Plant response rating, Ragweed [14, 21]: 30
- Plant response rating, Sedge, Umbrella [15]: 95
- Plant response rating (0 to 100), Corn [16, 18]: 5
- Corn plant response rating [16, 19]: 5
- Plant response rating, Corn [16, 20]: 10
- Plant response rating, Corn [16, 21]: 10
- Plant response rating (0 to 100), Nutsedge, Yellow [17, 18]: 0
- Nutsedge, Yellow plant response rating [17, 19]: 0
- Plant response rating, Nutsedge, Yellow [17, 20]: 5
- Plant response rating, Nutsedge, Yellow [17, 21]: 5
